Assay results taken from patent US9708334B2, “Substituted 2,4,5,6-tetrahydropyrrolo[3,4-c]pyrazole and 4,5,6,7-tetrahydro-2H-pyrazolo[4,3-c]pyridine compounds as GlyT1 inhibitors” (DART NEUROSCIENCE (CAYMAN) LTD., priority 2014, dated 2017).

Target: T1, GlyT1 (Homo sapiens, UniProt P48067)
T1 construct: expressed in transfected cells
T1 sequence (P48067 1-706): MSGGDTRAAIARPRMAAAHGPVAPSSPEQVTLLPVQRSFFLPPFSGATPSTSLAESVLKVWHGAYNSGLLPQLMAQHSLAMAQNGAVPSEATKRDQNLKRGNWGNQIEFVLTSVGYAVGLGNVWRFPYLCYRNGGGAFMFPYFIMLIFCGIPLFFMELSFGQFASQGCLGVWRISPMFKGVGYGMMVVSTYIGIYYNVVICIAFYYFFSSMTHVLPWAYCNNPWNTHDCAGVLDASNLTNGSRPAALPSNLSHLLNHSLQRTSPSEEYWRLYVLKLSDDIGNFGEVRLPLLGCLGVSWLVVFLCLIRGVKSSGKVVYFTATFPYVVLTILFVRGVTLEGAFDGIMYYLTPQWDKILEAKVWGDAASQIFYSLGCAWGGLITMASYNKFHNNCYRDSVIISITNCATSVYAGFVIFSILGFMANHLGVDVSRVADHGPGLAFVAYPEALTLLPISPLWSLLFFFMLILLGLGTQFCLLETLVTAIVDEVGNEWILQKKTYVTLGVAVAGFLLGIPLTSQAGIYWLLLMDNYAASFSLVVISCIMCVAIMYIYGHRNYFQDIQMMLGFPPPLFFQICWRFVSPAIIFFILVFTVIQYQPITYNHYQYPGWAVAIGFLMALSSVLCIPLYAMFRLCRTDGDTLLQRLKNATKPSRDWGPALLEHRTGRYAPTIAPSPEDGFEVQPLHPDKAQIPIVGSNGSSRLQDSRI
Experiment: Glycine Transporter 1 (GlyT1) uptake assay, scintillation proximity assay of [14C]-glycine uptake
Type: cell-based
Conditions: SPA, four parameter logistic fit, read-out: GlyT1 (pIC50) (converted)
Method in brief: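 [14C]-glycine uptake read by scintillation proximity on a plate counter. IC50 from four-parameter logistic fit of dose-response data.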

| IC50 [nM] | Structure (SMILES) |
| --- | --- |
| < 100 | CCC(C)Cn1cc2c(n1)CN(C(=O)c1cc(S(C)(=O)=O)ccc1N1CCC(F)(F)CC1)C2 (stereo in doubt) [Example 429, 4 4-Difluoro-1-(4-methanesulfonyl-2-{2-[(2S)-2-methylbutyl]-2H 4H 5H 6H-pyrrolo[3,4-c]pyrazole-5-carbonyl}phenyl)piperidine] |
| < 100 | CS(=O)(=O)c1ccc(-c2cccc(F)c2)c(C(=O)N2Cc3cn(CC4CCC4)nc3C2)c1 [Example 426, 2-(Cyclobutylmethyl)-5-[2-(3-fluorophenyl)-5-methanesulfonylbenzoyl]-2H 4H 5H 6H-pyrrolo[3,4-c]pyrazole] |
| < 100 | CS(=O)(=O)c1ccc(-c2cc(F)cc(F)c2)c(C(=O)N2Cc3cn(-c4cncc(F)c4)nc3C2)c1 [Example 563, 3-{5-[2-(3 5-Difluorophenyl)-5-methanesulfonylbenzoyl]-2H 4H 5H 6H-pyrrolo[3,4-c]pyrazol-2-yl}-5-fluoropyridine] |
| < 100 | COc1c(C#N)ccc(OC2CCCC2)c1C(=O)N1Cc2cn(-c3ccc(F)cc3)nc2C1 [Example 513, 4-(Cyclopentyloxy)-3-[2-(4-fluorophenyl)-2H 4H 5H 6H-pyrrolo[3,4-c]pyrazole-5-carbonyl]-2-methoxybenzonitrile] |
| 100 to 1000 | CC(Oc1ccc(C#N)c(Cl)c1C(=O)N1CCc2c(cnn2-c2ccc(F)cc2)C1)C(F)(F)F (stereo not drawn) [Example 501, 2-Chloro-3-[1-(4-fluorophenyl)-1H 4H 5H 6H 7H-pyrazolo[4,3-c]pyridine-5-carbonyl]-4-[(1 1 1-trifluoropropan-2-yl)oxy]benzonitrile] |
| 100 to 1000 | Cc1cc(F)cnc1-n1cc2c(n1)CN(C(=O)c1cc(S(C)(=O)=O)ccc1O[C@@H](C)C(F)(F)F)C2 [Example 361, 5-Fluoro-2-[5-(5-methanesulfonyl-2-{[(2S)-1 1 1-trifluoropropan-2-yl]oxy}benzoyl)-2H 4H 5H 6H-pyrrolo[3,4-c]pyrazol-2-yl]-3-methylpyridine] |
| 100 to 1000 | CCOc1cc(-n2cc3c(n2)CN(C(=O)c2cc(C#N)ccc2O[C@@H](C)C(F)(F)F)C3)ccn1 [Example 371, 3-[2-(2-Ethoxypyridin-4-yl)-2H 4H 5H 6H-pyrrolo[3,4-c]pyrazole-5-carbonyl]-4-{[(2S)-1 1 1-trifluoropropan-2-yl]oxy}benzonitrile] |
| 100 to 1000 | Cc1cc(-n2cc3c(n2)CN(C(=O)c2cc(C#N)ccc2OCC(F)(F)F)C3)ccn1 [Example 539, 3-[2-(2-Methylpyridin-4-yl)-2H 4H 5H 6H-pyrrolo[3,4-c]pyrazole-5-carbonyl]-4-(2 2 2-trifluoroethoxy)benzonitrile] |
| 100 to 1000 | CC1(COc2ccc(S(C)(=O)=O)cc2C(=O)N2Cc3cn(-c4ccccc4F)nc3C2)COC1 [Example 436, 2-(2-Fluorophenyl)-5-{5-methanesulfonyl-2-[(3-methyloxetan-3-yl)methoxy]benzoyl}-2H 4H 5H 6H-pyrrolo[3,4-c]pyrazole] |
| < 100 | CCS(=O)(=O)c1ccc(-c2cc(F)cc(F)c2)c(C(=O)N2Cc3cn(-c4ccnc(C)c4)nc3C2)c1 [Example 569, 4-{5-[2-(3 5-Difluorophenyl)-5-(ethanesulfonyl)benzoyl]-2H 4H 5H 6H-pyrrolo[3,4-c]pyrazol-2-yl}-2-methylpyridine] |
| 100 to 1000 | C[C@H](Oc1ccc(C#N)cc1C(=O)N1Cc2cn(-c3ccc(F)cc3)nc2C1)C(F)(F)F [Example 530, 3-[2-(4-Fluorophenyl)-2H 4H 5H 6H-pyrrolo[3,4-c]pyrazole-5-carbonyl]-4-{[(2S)-1 1 1-trifluoropropan-2-yl]oxy}benzonitrile] |
| < 100 | CS(=O)(=O)c1ccc(-c2cccc(F)c2)c(C(=O)N2Cc3cn(CC4CC4)nc3C2)c1 [Example 449, 2-(Cyclopropylmethyl)-5-[2-(3-fluorophenyl)-5-methanesulfonylbenzoyl]-2H 4H 5H 6H-pyrrolo[3,4-c]pyrazole] |

More lines, now with the values behind:

| Structure (SMILES) | IC50 [nM] |
| --- | --- |
| CC(C)S(=O)(=O)c1ccc(O[C@@H](C)C(F)(F)F)c(C(=O)N2Cc3cn(-c4ccc(F)cc4)nc3C2)c1 [Example 91, 2-(4-Fluorophenyl)-5-[5-(propane-2-sulfonyl)-2-{[(2S)-1 1 1-trifluoropropan-2-yl]oxy}benzoyl]-2H 4H 5H 6H-pyrrolo[3,4-c]pyrazole] | 100 to 1000 |
| COc1c(C#N)ccc(O[C@@H](C)C(F)(F)F)c1C(=O)N1Cc2cn(-c3cc(C)c(F)cn3)nc2C1 [Example 305, 3-[2-(5-Fluoro-4-methylpyridin-2-yl)-2H 4H 5H 6H-pyrrolo[3,4-c]pyrazole-5-carbonyl]-2-methoxy-4-{[(2 S)-1 1 1-trifluoropropan-2-yl]oxy}benzonitrile] | < 100 |
| COc1c(C#N)ccc(OC(C)C(F)(F)F)c1C(=O)N1CCc2nn(-c3ccnc(C)c3)cc2C1 (stereo not drawn) [Example 227, 2-Methoxy-3-[2-(2-methylpyridin-4-yl)-2H 4H 5H 6H 7H-pyrazolo[4,3-c]pyridine-5-carbonyl]-4-[(1 1 1-trifluoropropan-2-yl)oxy]benzonitrile] | < 100 |
| O=C(c1cc(N2CCOC2=O)ccc1C1CCCC1)N1CCc2nn(-c3ccccc3)cc2C1 [Example 171, 3-(4-Cyclopentyl-3-{2-phenyl-2H 4H 5H 6H 7H-pyrazolo[4,3-c]pyridine-5-carbonyl}phenyl)-1 3-oxazolidin-2-one] | 100 to 1000 |
| C[C@H](Oc1ccc(S(C)(=O)=O)cc1C(=O)N1Cc2cn(-c3cc(F)ccc3F)nc2C1)C(F)(F)F [Example 121, 2-(2 5-Difluorophenyl)-5-(5-methanesulfonyl-2-{[(2S)-1 1 1-trifluoropropan-2-yl]oxy}benzoyl)-2H 4H 5H 6H-pyrrolo[3,4-c]pyrazole] | < 100 |
| CC(Oc1ccc(C(=O)O)c(Cl)c1C(=O)N1Cc2cn(-c3ccc(F)cc3)nc2C1)C(F)(F)F (stereo not drawn) [Example 5, 2-Chloro-3-(2-(4-fluorophenyl)-2,4,5,6-tetrahydropyrrolo[3,4-c]pyrazole-5-carbonyl)-4-((1,1,1-trifluoropropan-2-yl)oxy)benzoic acid] | > 10000 |
| N#Cc1ccc(C2(F)CCCC2)c(C(=O)N2CCc3nn(-c4ccc(F)cc4)cc3C2)c1F [Example 188, 2-Fluoro-4-(1-fluorocyclopentyl)-3-[2-(4-fluorophenyl)-2H 4H 5H 6H 7H-pyrazolo[4,3-c]pyridine-5-carbonyl]benzonitrile] | 100 to 1000 |
| Cc1ncc(-n2cc3c(n2)CN(C(=O)c2cc(C#N)ccc2O[C@@H](C)C(F)(F)F)C3)cc1F [Example 351, 3-[2-(5-Fluoro-6-methylpyridin-3-yl)-2H 4H 5H 6H-pyrrolo[3,4-c]pyrazole-5-carbonyl]-4-{[(2 S)-1 1 1-trifluoropropan-2-yl]oxy}benzonitrile] | 100 to 1000 |
| COc1cccc(-n2cc3c(n2)CN(C(=O)c2c(O[C@@H](C)C(F)(F)F)ccc(C#N)c2OC)C3)n1 [Example 275, 2-Methoxy-3-[2-(6-methoxypyridin-2-yl)-2H 4H 5H 6H-pyrrolo[3,4-c]pyrazole-5-carbonyl]-4-{[(2S)-1 1 1-trifluoropropan-2-yl]oxy}benzonitrile] | < 100 |
| Cc1cccc(-n2cc3c(n2)CN(C(=O)c2cc(S(=O)(=O)C(C)C)ccc2O[C@@H](C)C(F)(F)F)C3)c1 [Example 89, 2-(3-Methylphenyl)-5-[5-(propane-2-sulfonyl)-2-{[(2S)-1 1 1-trifluoropropan-2-yl]oxy}benzoyl]-2H 4H 5H 6H-pyrrolo[3,4-c]pyrazole] | 100 to 1000 |
| COc1c(C#N)ccc(O[C@@H](C)C(F)(F)F)c1C(=O)N1Cc2cn(-c3cccnc3)nc2C1 [Example 246, 2-Methoxy-3-[2-(pyridin-3-yl)-2H 4H 5H 6H-pyrrolo[3,4-c]pyrazole-5-carbonyl]-4-{[(2S)-1 1 1-trifluoropropan-2-yl]oxy}benzonitrile] | < 100 |
| Cc1cccc(-n2cc3c(n2)CN(C(=O)c2cc(S(C)(=O)=O)ccc2OCC2CC2)C3)c1F [Example 139, 5-[2-(Cyclopropylmethoxy)-5-methanesulfonylbenzoyl]-2-(2-fluoro-3-methylphenyl)-2H 4H 5H 6H-pyrrolo[3,4-c]pyrazole] | < 100 |
| CCS(=O)(=O)c1ccc(O[C@@H](C)C(F)(F)F)c(C(=O)N2Cc3cn(-c4ccccc4)nc3C2)c1 [Example 40, 5-[5-(Ethanesulfonyl)-2-{[(2S)-1 1 1-trifluoropropan-2-yl]oxy}benzoyl]-2-phenyl-2H 4H 5H 6H-pyrrolo[3,4-e]pyrazole] | < 100 |
| CC(C)Oc1ccc(S(C)(=O)=O)cc1C(=O)N1Cc2cn(-c3cccc(Cl)c3F)nc2C1 [Example 148, 2-(3-Chloro-2-fluorophenyl)-5-[5-methanesulfonyl-2-(propan-2-yloxy)benzoyl]-2H 4H 5H 6H-pyrrolo[3,4-c]pyrazole] | < 100 |
| C[C@H](Oc1ccc(S(C)(=O)=O)cc1C(=O)N1Cc2cn(-c3cccc(F)c3Cl)nc2C1)C(F)(F)F [Example 147, 2-(2-Chloro-3-fluorophenyl)-5-(5-methanesulfonyl-2-{[(2S)-1 1 1-trifluoropropan-2-yl]oxy}benzoyl)-2H 4H 5H 6H-pyrrolo[3,4-c]pyrazole] | < 100 |
